Assays:
AcrB = target: T1, AcrB (Escherichia coli, UniProt P31224); assay: label-free microscale thermophoresis; assay type: binding
T1 sequence (P31224 1-1049): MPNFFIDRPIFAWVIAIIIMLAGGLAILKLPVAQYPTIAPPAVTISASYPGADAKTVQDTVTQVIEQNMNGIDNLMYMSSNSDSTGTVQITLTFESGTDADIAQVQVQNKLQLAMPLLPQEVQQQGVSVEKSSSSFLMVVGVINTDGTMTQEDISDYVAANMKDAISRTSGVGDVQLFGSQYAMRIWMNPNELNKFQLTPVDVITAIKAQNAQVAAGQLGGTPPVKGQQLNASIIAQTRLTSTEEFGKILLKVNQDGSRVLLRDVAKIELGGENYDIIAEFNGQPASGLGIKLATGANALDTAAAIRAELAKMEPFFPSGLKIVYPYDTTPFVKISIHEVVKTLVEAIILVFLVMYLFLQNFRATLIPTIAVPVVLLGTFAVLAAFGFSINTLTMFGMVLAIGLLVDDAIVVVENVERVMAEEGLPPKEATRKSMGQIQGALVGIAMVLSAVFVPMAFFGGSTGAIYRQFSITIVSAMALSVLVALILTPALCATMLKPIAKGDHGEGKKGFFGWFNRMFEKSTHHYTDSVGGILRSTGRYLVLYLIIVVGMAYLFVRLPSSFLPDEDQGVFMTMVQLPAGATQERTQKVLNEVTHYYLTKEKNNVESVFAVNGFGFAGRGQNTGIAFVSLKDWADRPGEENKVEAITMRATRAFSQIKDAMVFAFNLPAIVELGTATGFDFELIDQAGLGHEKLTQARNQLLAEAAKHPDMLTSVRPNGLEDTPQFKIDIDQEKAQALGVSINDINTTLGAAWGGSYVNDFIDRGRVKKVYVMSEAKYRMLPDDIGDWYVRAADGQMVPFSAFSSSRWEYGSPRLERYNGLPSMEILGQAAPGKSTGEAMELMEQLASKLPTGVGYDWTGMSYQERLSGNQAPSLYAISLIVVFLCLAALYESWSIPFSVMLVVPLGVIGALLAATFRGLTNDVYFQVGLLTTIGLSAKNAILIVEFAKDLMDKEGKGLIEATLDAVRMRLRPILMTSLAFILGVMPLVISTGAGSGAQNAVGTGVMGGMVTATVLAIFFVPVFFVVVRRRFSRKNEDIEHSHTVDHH

E. coli BW25113 [1] = assay: microbe, parasite or virus in culture; conditions: Escherichia coli, BW25113, 24 h, read-out: MIC, E. coli BW25113
TolC = target: T2, TolC (Escherichia coli, UniProt P02930); assay: label-free microscale thermophoresis; assay type: binding
T2 sequence (P02930 23-493): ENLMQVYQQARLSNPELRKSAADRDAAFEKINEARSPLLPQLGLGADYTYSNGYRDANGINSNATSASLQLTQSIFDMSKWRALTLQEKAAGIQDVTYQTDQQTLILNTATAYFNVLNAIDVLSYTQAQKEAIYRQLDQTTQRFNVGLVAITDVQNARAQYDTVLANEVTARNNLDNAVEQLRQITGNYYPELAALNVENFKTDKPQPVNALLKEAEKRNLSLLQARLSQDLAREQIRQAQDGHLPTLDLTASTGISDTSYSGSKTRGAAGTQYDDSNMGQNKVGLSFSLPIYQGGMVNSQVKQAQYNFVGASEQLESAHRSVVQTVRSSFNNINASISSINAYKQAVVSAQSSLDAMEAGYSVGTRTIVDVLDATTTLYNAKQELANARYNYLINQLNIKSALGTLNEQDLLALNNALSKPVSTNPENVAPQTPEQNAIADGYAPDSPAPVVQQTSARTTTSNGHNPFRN

E. coli JW5503 = assay: microbe, parasite or virus in culture; conditions: Escherichia coli, JW5503, 24 h, read-out: MIC, E. coli JW5503
E. coli BW25113 [2] = test system: E. coli BW25113; design: species or system Escherichia coli; conditions: compound alone; 24 h; inhibitor

Compound: CNC(=O)c1ccccc1Nc1nc(Nc2ccc3c(c2OC)CCC[C@H](N2CCN(CCO)CC2)C3)ncc1Cl [CEP-37440]
- Kd (AcrB): 198 µM
- MIC (E. coli BW25113 [1]): > 125 µM
- Kd (TolC): 282 µM
- MIC (E. coli JW5503): > 75 µM

Compound: COc1c(N)ccc2c1CCCC(N1CCN(CCO)CC1)C2 (centres unmarked) [LP-115]
- MIC, E. coli BW25113 (E. coli BW25113 [2]): >125 µM

From publication doi:10.1101/2025.02.18.638599v1 (biorxiv, 2025)
